Measured values as given in patent US6353029B1, “Storage stable tretinoin and 4-hydroxyanisole containing topical composition” (Bristol-Myers Squibb Company, priority 2000, dated 2002).
Where two headings read alike, the source gives them in different places.

Legend:
[1] = cited from earlier work
[2] = Physical and chemical stability of tretinoin/4-HA cream compositions; type: physicochemical; conditions: creams with other emulsifiers and thickeners added, containing 4-HA
Source text: In an effort to develop a pharmaceutically elegant dermatological composition containing tretinoin and 4-HA and having long term storage stability (as hereinafter defined), the present inventors incorporated the tretinoin and 4-HA in cream compositions. The oil-in-water emulsion based creams broke. Most likely, this was due to the 4-HA component as it is soluble in both the oil phase and water phase.

Compound: CC1=C(/C=C/C(C)=C/C=C/C(C)=C/C(=O)O)C(C)(C)CCC1 [tretinoin, all-trans retinoic acid]
- shelf life of tretinoin ([1]; aqueous gel with Cremophor RH40 as solubilizing agent): 3 months
- shelf life of tretinoin ([1]; aqueous gel without Cremophor RH40): 10 months
- shelf life of tretinoin ([1]; propylene glycol-alcohol solution at 25° C, 0.05% tretinoin): 6.7 months
- stability of tretinoin [2]: very unstable
